From US11384115B2, “Nuclear sulfated oxysterol, potent regulator of lipid homeostasis, for therapy of hypercholesterolemia, hypertriglycerides, fatty liver diseases, and atherosclerosis” (Virginia Commonwealth University, priority 2004, dated 2022)
Like-named read-outs stand apart in the source and are kept apart here.

Experiments:
[1] = biological target: T1, PPARγ (Homo sapiens, UniProt P37231); test: Confocal immunofluorescence of intracellular PPARγ distribution in THP-1 macrophages; type: cell-based; settings: compared with DMSO; 25 μM 25HC3S, 1 μM T0070907
T1 construct: THP-1 monocytes were differentiated to macrophages by adding 100 nM of phorbol 12-myristate 13-acetate (PMA); endogenous in cells; host or cells: THP-1 monocyte-derived macrophages (human, ATCC)
T1 sequence (P37231 1-505): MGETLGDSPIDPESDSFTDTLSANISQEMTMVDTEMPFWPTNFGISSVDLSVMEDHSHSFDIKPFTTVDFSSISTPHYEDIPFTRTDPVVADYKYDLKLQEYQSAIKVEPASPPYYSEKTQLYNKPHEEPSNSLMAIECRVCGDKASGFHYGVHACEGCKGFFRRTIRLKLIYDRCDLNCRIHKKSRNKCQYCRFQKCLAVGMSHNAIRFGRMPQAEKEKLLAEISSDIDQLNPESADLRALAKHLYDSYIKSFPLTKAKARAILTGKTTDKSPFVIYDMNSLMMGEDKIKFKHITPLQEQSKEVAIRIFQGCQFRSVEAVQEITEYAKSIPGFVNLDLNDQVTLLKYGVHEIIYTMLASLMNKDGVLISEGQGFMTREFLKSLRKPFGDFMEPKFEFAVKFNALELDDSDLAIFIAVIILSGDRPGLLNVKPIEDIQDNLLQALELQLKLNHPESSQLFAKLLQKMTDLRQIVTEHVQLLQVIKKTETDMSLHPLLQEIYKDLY
Procedure: Confocal microscopy analysis of intracellular translocation of PPARγ protein distribution. The nuclear marker was stained with DAP1 and PPARγ protein was detected by anti-PPARγ immunofluorescence.
THP-1 derived macrophages were cultured on coverslips in six-well plates and treated with different concentrations of 25HC and 25HC3S for 4 hrs. The cells on coverslips were washed with PBS, fixed with 3.7% formaldehyde for 10 min at 4° C., and then rinsed three times with PBS at room temperature. They were then permeabilized with PBS containing 0.1% of TritonX-100 for 3 min and washed with PBS before blocking by incubation with 5% of normal goat serum in PBS overnight at 4° C. For interaction with primary antibodies, cells were incubated with 2.5% normal goat serum in PBS containing PPARγ antibody for 1 hr in an incubator. Cells were washed in PBS containing 0.05% of Tween 20 (3×10 min). The bound primary antibodies were visualized with Alexa Fluor 488 goat anti-mouse IgG. The minor groove of double stranded DNA as a nuclear marker was stained by DAPI. Afterwashing, coverslips were mounted on slides and viewed with a Zeiss LSM 510 Meta confocal microscope.

[2] = tested on: ABCA1, ABCG1, ABCG5, ABCG8 gene expression; test: LXR targeting gene expression by real time RT-PCR in primary hepatocytes; type: cell-based, mouse
Source text: FIG. 10. ABCA1 (A1), ABCG1 (G1), LDL receptor (LDLR), ABCG5 (G5), and ABCG8 (G8) gene expression in primary mouse hepatocytes following addition of the purified nuclear oxysterol. At 24 hrs following the addition, cells were harvested and total RNAs were extracted and gene expression levels were quantitated by real time RT-PCR. β-Actin mRNA was used as total mRNA internal standard. The gene expression levels in cells […] were compared with those in control cells. Ten μg of total RNA was used for cDNA preparation (RT) and 10 ng of cDNA was used for PCR. The expression levels were normalized to β-actin.
Preliminary experiments have shown that the purified nuclear oxysterol up-regulates bile acid synthesis. To further investigate the mechanism of this activity, the effect of purified 5-cholesten-3β, 25-diol 3-sulphate on gene expression of LXR-targeted cholesterol transport proteins ABCA1, ABCG1, ABCG5, ABCG8, and LDLR was investigated. Purified nuclear sulfated oxysterol was added to primary hepatocytes in culture, and mRNA levels of the transport proteins were quantitated by real time RT-PCR. The primer sets and TagMan probes for detection of mRNA levels were purchased from AB Applied Biosystem (Foster City, Calif.) and the reactions were performed on an MJ Research DNA Engine Opticon instrument.

[3] = Water solubility (statement); type: physicochemical
[4] = biological target: T1, PPARγ; test: PPARγ transcription factor assay (PPRE-immobilized ELISA) of nuclear extracts; type: cell-based; settings: THP-1 macrophages, 4 hrs, concentration-dependent
Procedure: PPAR response elements (PPRE) binding activities were measured using an enzyme-linked immunosorbent assay (PPAR transcription factor assay kit; Cayman Chemical, Ann Arbor, Mich.). The 96-well plate was preimmobilized with deoxyoligonucleoties containing PPRE. […] The cells were then rinsed and nuclear proteins were extracted according to the manufacturer's instructions. Total nuclear extract protein, 10 g from each sample, was added to the plate. The kit provided two negative as zero controls, one positive as maximal binding control, and one competitive as specific binding control (in the presence of dsDNA) were used in the assay. After incubating for 1 hr, the wells were washed and incubated with primary PPAR antibody which recognizes the accessible epitope on PPAR protein upon PPRE binding. The peroxidase-labeled second antibody was added and incubated for 1 hr. The reaction was stopped and absorbance was read at 450 nm in a spectrophotometer.

[5] = tested on: HepG2 cells; test: Cholesterol biosynthesis from [1-14C]acetate by TLC and HPLC; type: cell-based, human; settings: HepG2, 25HC3S 6 hrs then [14C]acetate 4 hrs
Procedure: After incubation of HepG2 cells with media containing 25HC3S for 6 hrs, cultures in 25-cm2 flasks were given 3 ml of the same fresh medium containing 5 μCi of the [1-^14C]acetate. After 4 hr incubation at 37° C., the media were removed and the cells were washed twice with phosphate-saline buffer (PBS), harvested with rubber police as described, and collected in Eppendoff tubes. The cells were sedimented by centrifugation and the pellets were washed three times by resuspension and sedimentation. The pellets were resuspended in 0.3 ml of PBS. The total lipids were extracted and separated by adding 3 volume of chloroform:methanol (v/v, 1:1). [^14C]Cholesterol and 27-hydroxycholesterol was isolated into chloroform phase and separated on TLC (tuluene:acetyl acetate, 2/3, v/v/). [1-^14C]acetate derivatives were visualized by Image Reader, Fujifilm BAS-1800 II.
[1-^14C]Acetate derivatives in the chloroform phase were analyzed by HPLC on an Ultrasphere Silica column (5μ×4.6 mm×25 cm; Backman, USA) using HP Series 1100 solvent delivery system (Hewlett Packard) at 1.3 ml/min flow rate. The column was equilibrated and run in a solvent system of hexane:isopropanol:glacial acetic acid (965:25:10, v/v/v), as the mobile phase. The effluents were collected every 0.5 min (0.65 ml per fraction) except as indicated. The counts in [^14C]acetate derivatives were determined by Scintillation Counting. […]

[6] = tested on: HMG CoA reductase; test: Western blot of HMG CoA reductase protein in HepG2 cells; type: cell-based, human
Procedure: FIGS. 15A-15D. 25HC3S regulates HMGR mRNA Expression. Real time RT-PCR analysis of HMG CoA R reductase expression in HepG2 cells (FIGS. 15A and 15B). Western blot analysis of protein levels of HMG CoA reductase (FIG. 15C). Total RNAs were purified using SV Total RNA Isolation Kit (Promega) from the cells treated with 25HC3S at concentrations as indicated (FIG. 15A) and incubation at 12 μM of 25HC3S for the different times (effect on HMG CoA mRNA) (FIG. 15B). Two μg of total RNA was used for cDNA preparation (RT) and performed as manufacture recommended (Invitrogen), and 10 ng of cDNA was used for real time PCR. The expression levels were normalized to GAPDH. The bands of HMG CoA reductase (HMGR) were quantitated by laser density scanning. Each value represents mean of three experiments±standard derivation.
Microsomal proteins (80 μg) were separated on a 7.5% SDS-polyacrylamide denaturing gel according to the method of Laemmli (14). Following SDS-PAGE (Hoefer Vertical Slab Gel Unit; Heofer, San Francisco, Calif.), proteins were electrophoretically transferred overnight (4° C.) to Immobilon-P membranes using a Hoefer Trans Blot Electrophoretic Transfer cell. The membranes were then blocked for 90 minutes (25° C.) in blocking buffer (PBS, pH 7.4, 0.1% Tween, 5% non-fat dry milk). […] Protein bands were detected using the Amersham ECL plus Kit.

[7] = primary hepatocytes in culture, mRNA

SMILES: C[C@H](CCCC(C)(C)O)[C@H]1CC[C@H]2[C@@H]3CC=C4C[C@@H](OS(=O)(=O)O)CC[C@]4(C)[C@H]3CC[C@]12C [25HC3S, 5-cholesten-3β, 25-diol 3-sulphate]
- nuclear PPARγ fluorescence intensities [1]: increased
- increased expression of ABCA1 [2, 7]: 2 fold
- increased expression of ABCG5 [2, 7]: 1.6 fold
- increased expression of ABCG8 [2, 7]: 3 fold
- expression of ABCG1 ([2]; primary hepatocytes, compared with control cells): did not change
- water solubility [3]: water soluble
- water solubility ([3]; listed as 25-hydroxycholesterol 3-sulfate): water-soluble
- PPRE-binding activities of the nuclear extracts [4]: significantly increased
- free [14C]cholesterol synthesized from [14C]acetate [5]: significantly decreased
- decrease of HMG CoA reductase protein level [6]: 50%
